In ChEMBL document CHEMBL1201862, “PubChem BioAssay data set” (2004):
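The compound was tested at five concentrations on cells cultured in 96-well plates, with a 48-hour exposure period. Here, GI50 denotes the concentration required for 50% inhibition of growth.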 Active and inactive are the calls of the source. No stated cut-off is given here; in the data, active = GI50 up to about 1.1 µM and inactive = higher.

Legend:
Test in all cases: NCI anticancer screen, dose series, 48 h
A498 = test system: A498
SK-OV-3 = test system: SK-OV-3
HOP-62 = test system: HOP-62
EKVX = test system: EKVX
K562 = test system: K562
SNB-75 = test system: SNB-75
Malme-3M = test system: Malme-3M
SK-MEL-2 = test system: SK-MEL-2
SR = test system: SR
NCI/ADR-RES = test system: NCI/ADR-RES
HL-60 = test system: HL-60
NCI-H460 = test system: NCI-H460
CAKI-1 = test system: CAKI-1
SF-539 = test system: SF-539
CCRF-CEM = test system: CCRF-CEM
Hs-578T = test system: Hs-578T
SF-295 = test system: SF-295
MDA-MB-231 = test system: MDA-MB-231
LOX IMVI = test system: LOX IMVI
T47D = test system: T47D

Compound	GI50 (A498)	GI50 (SK-OV-3)	GI50 (HOP-62)	GI50 (EKVX)	GI50 (K562)	GI50 (SNB-75)	GI50 (Malme-3M)	GI50 (SK-MEL-2)	GI50 (SR)	GI50 (NCI/ADR-RES)	GI50 (HL-60)	GI50 (NCI-H460)	GI50 (CAKI-1)	GI50 (SF-539)	GI50 (CCRF-CEM)	GI50 (Hs-578T)	GI50 (SF-295)	GI50 (MDA-MB-231)	GI50 (LOX IMVI)	GI50 (T47D)
CN(CCC(=O)O)S(=O)(=O)c1ccccc1	> 100 µM (inactive)	> 100 µM (inactive)	> 100 µM (inactive)	> 100 µM (inactive)	> 100 µM (inactive)	80.2 µM (inactive)	> 100 µM (inactive)	> 100 µM (inactive)	> 100 µM (inactive)	> 100 µM (inactive)	> 100 µM (inactive)	> 100 µM (inactive)	> 100 µM (inactive)	> 100 µM (inactive)	> 100 µM (inactive)	> 100 µM (inactive)	> 100 µM (inactive)	> 100 µM (inactive)	> 100 µM (inactive)	> 100 µM (inactive)
CCN(CCCl)CCCCNc1c2ccccc2nc2ccc(OC)cc12	0.379 µM (active)	1.24 µM (inactive)	0.439 µM (active)	0.723 µM (active)	0.2 µM (active)	0.472 µM (active)	0.957 µM (active)	0.662 µM (active)	< 0.01 µM (active)	4.25 µM (inactive)	0.0929 µM (active)	0.0601 µM (active)	0.394 µM (active)	0.653 µM (active)	< 0.037 µM (active)	1.22 µM (inactive)	0.259 µM (active)	0.457 µM (active)	0.149 µM (active)	0.191 µM (active)
COC1(C)CP(=O)(OC(C)C)CC(C)=C1Cl (stereo not drawn)	9.42 µM (inactive)	49.2 µM (inactive)	17.9 µM (inactive)	14.6 µM (inactive)	3.36 µM (inactive)	46.9 µM (inactive)	17.3 µM (inactive)	6.41 µM (inactive)	7.19 µM (inactive)	17.8 µM (inactive)	10.9 µM (inactive)	18.3 µM (inactive)	17 µM (inactive)	10.7 µM (inactive)	3.66 µM (inactive)	9.84 µM (inactive)	11.8 µM (inactive)	15.9 µM (inactive)	11.7 µM (inactive)	13.6 µM (inactive)
CCN1C[C@]2(COC)[C@H](O)C[C@H](OC)[C@]34C1[C@H]([C@H](OC)[C@H]23)[C@]1(OC(C)=O)[C@H]2[C@@H](OC(=O)c3ccccc3)[C@](O)(C[C@H]24)[C@@H](OC)[C@@H]1O	> 100 µM (inactive)	> 100 µM (inactive)	–	> 100 µM (inactive)	> 100 µM (inactive)	31.1 µM (inactive)	> 100 µM (inactive)	> 100 µM (inactive)	> 100 µM (inactive)	> 100 µM (inactive)	> 100 µM (inactive)	> 100 µM (inactive)	> 100 µM (inactive)	> 100 µM (inactive)	> 100 µM (inactive)	> 100 µM (inactive)	> 100 µM (inactive)	> 100 µM (inactive)	> 100 µM (inactive)	> 100 µM (inactive)
C=C[C@]1(C)C[C@@H](OC(=O)CO)[C@@]2(C)[C@H](C)CC[C@]3(CCC(=O)[C@H]32)[C@@H](C)[C@@H]1O	> 54.6 µM (inactive)	> 100 µM (inactive)	71.8 µM (inactive)	> 100 µM (inactive)	40 µM (inactive)	> 74 µM (inactive)	83.4 µM (inactive)	> 59.3 µM (inactive)	> 43.4 µM (inactive)	> 100 µM (inactive)	49.8 µM (inactive)	> 61.2 µM (inactive)	> 100 µM (inactive)	> 100 µM (inactive)	–	> 53.1 µM (inactive)	> 76.4 µM (inactive)	> 100 µM (inactive)	> 31.6 µM (inactive)	99.5 µM (inactive)
